Laboratory results reported in patent US20230083885A1, “MODULATORS OF INTEGRATED STRESS RESPONSE PATHWAY” (Praxis Biotech LLC, priority 2021, published 2023).
Read-outs that look alike come from different tables or passages of the source.

Assays:
[1] = tested on: Chinese hamster ovary (CHO) cells; assay: Protein synthesis assay (puromycin incorporation, Western blot); type: cell-based; conditions: Cricetulus griseus, read-out: % Protein synthesis relative to untreated (1 μM test compound)
Protocol: Chinese hamster ovary (CHO) cells were maintained at 37° C. and 5% CO2 in Dulbecco's Modified Eagle's Media (DMEM) supplemented with 10% fetal bovine serum, 2 mM L-glutamine, 100 U/ml penicillin, and 100 μg/ml streptomycin. After reaching 80% of confluence, cells were detached and seeded on 6 well plates in complete media, allowed to recover overnight and treated for 2 hours with 1 μM of the test compound (to assess protein synthesis levels in unstressed condition), or for 2 hours with 300 nM Tg in the presence of 1 μM of the test compound (to assess the recovery of protein synthesis in a stressed condition). Cells with Tg alone were used as controls.
After the 2 hours treatments, media were replaced by adding 10 μg/ml puromycin (Sigma Aldrich #P8833) in complete media for 30 min. Media were removed and cells were lysed with SDS-PAGE lysis buffer. Lysates were transferred to 1.5 ml tubes and sonicated for 3 min and total protein amount were quantified using BCA Protein Assay Kit (Pierce). Equal amount of protein (30 μg) was loaded on SDS-PAGE gels.
A HRP-conjugated secondary antibody (Rockland) was employed to detect immune-reactive bands using enhanced chemiluminescence (ECL Western Blotting Substrate, Pierce). Quantification of protein bands was done by densitometry using ImageJ software.
The percentage levels were normalized to the media alone condition, which correspond to 100% protein synthesis. […]

ATF4 = ATF4 expression inhibition assay (ATF4 5'UTR luciferase reporter, thapsigargin-stressed); type: cell-based; conditions: Homo sapiens, HEK-293T, read-out: ATF4 inhibition
Protocol: The ATF4 reporter was prepared by fusing the human full length 5′UTR of ATF4 (NCBI Accession No. BC022088.2) upstream of the firefly luciferase coding sequence lacking the initiator methionine. The fused sequence was cloned into pLenti-EF1a-C-Myc-DDK-IRES-Puro cloning vector (Origen #PS100085) using standard methods.
HEK293T cells carrying the ATF4 luciferase reporter were plated on 96-well plates (Nunc) at 10,000 cells per well. Cells were treated two days after seeding with 100 nM thapsigargin (Tg) (Sigma-Aldrich #T9033) in the presence of different concentrations of selected compounds ranging from 0.1 nM to 10 μM. Cells without treatment or cells treated with Tg alone were used as controls. Assay plates containing cells were incubated for 3 hours at 37° C.
Luciferase reactions were performed using Luciferase Assay System (Promega #E1501) as specified by the manufacturer. Luminescence was read with an integration time of 1 s and a gain of 110 using a Cytation-5 multi-mode microplate reader (BioTek).

[2] = unstressed CHO cells (without Tg), 1 μM test compound, 2 hours, media alone = 100%
[3] = HEK293T cells carrying ATF4 luciferase reporter, 100 nM thapsigargin, 3 hours

IC50 (ATF4; [3]) [nM]	SMILES	activity at 1 µM [1, 2] [%]	activity at 1 µM ([1]; CHO, 2 h) [%]	IC50 (ATF4; 3 h) [nM]
10 to 100	O=C(Nc1ccc2cc(Cl)ccc2n1)[C@H]1CC[C@H](c2nnc(C3CNc4cc(Cl)ccc4O3)o2)CC1 (stereo partly drawn) [Compound 45, trans-4-(5-(6-chloro-3,4-dihydro-2H-benzo[b][1,4]oxazin-2-yl)-1,3,4-oxadiazol-2-yl)-N-(6-chloroquinolin-2-yl)cyclohexanecarboxamide]	81.8		
10 to 100	O=C(N[C@H]1CC[C@H](c2nnc(COc3ccc(Cl)cc3)o2)CC1)C1CNc2cc(Cl)ccc2O1 (stereo partly drawn) [Compound 11, trans-6-chloro-N-(4-(5-((4-chlorophenoxy)methyl)-1,3,4-oxadiazol-2-yl)cyclohexyl)-3,4-dihydro-2H-benzo[b][1,4]oxazine-2-carboxamide]	140		
< 10	O=C(COc1ccc(Cl)c(F)c1)N[C@H]1CC[C@H](c2nnc(COc3ccc(Cl)cc3)o2)CC1 [Compound 12, trans-2-(4-chloro-3-fluorophenoxy)-N-(4-(5-((4-chlorophenoxy)methyl)-1,3,4-oxadiazol-2-yl)cyclohexyl)acetamide]	144		
< 10	O=C(COc1ccc(Cl)c(F)c1)N[C@H]1CC[C@H](n2cnc(-c3ccc(Cl)cc3)c2)CC1 [Compound 44, trans-2-(4-chloro-3-fluorophenoxy)-N-(4-(4-(4-chlorophenyl)-1H-imidazol-1-yl)cyclohexyl)acetamide]	39.5		
100 to 1000	O=C(COc1ccc(Cl)c(F)c1)N[C@H]1CC[C@@H](c2cnn(-c3ccc(Cl)cc3)c2)CC1 [Compound 36, cis-2-(4-chloro-3-fluorophenoxy)-N-(4-(1-(4-chlorophenyl)-1H-pyrazol-4-yl)cyclohexyl)acetamide]	6.4		
> 1000	O=C(N[C@H]1CC[C@H](c2nnc(COc3ccc(Cl)cc3)o2)CC1)c1cnc(C(F)F)cn1 [Compound 16, trans-N-(4-(5-((4-chlorophenoxy)methyl)-1,3,4-oxadiazol-2-yl)cyclohexyl)-5-(difluoromethyl)pyrazine-2-carboxamide]	115		
10 to 100	O=C(COc1ccc(Cl)c(F)c1)N[C@H]1CC[C@H](c2nnc([C@H]3C[C@@H](C(F)(F)F)C3)o2)CC1 [Compound 243, trans-2-(4-chloro-3-fluorophenoxy)-N-(4-(5-(cis-3-(trifluoromethyl)cyclobutyl)-1,3,4-oxadiazol-2-yl)cyclohexyl)acetamide]	-39.1		
10 to 100	O=C(Nc1ccc2cc(Cl)ccc2n1)[C@H]1CC[C@H](c2nnc([C@H]3C[C@@H](OC(F)(F)F)C3)o2)CC1 [Compound 48, trans-N-(6-chloroquinolin-2-yl)-4-(5-(cis-3-(trifluoromethoxy)cyclobutyl)-1,3,4-oxadiazol-2-yl)cyclohexanecarboxamide]	22.4		
< 10	O=C(COc1ccc(Cl)c(F)c1)N[C@H]1CC[C@H](c2nnc(C3CNc4cc(Cl)ccc4O3)o2)CC1 (stereo partly drawn) [Compound 18, trans-N-(4-(5-(6-chloro-3,4-dihydro-2H-benzo[b][1,4]oxazin-2-yl)-1,3,4-oxadiazol-2-yl)cyclohexyl)-2-(4-chloro-3-fluorophenoxy)acetamide]	127		
< 10	O=C(COc1ccc(Cl)c(F)c1)N[C@H]1CC[C@H](c2nnc(Cc3ccc(Cl)c(F)c3)o2)CC1 [Compound 244, N-(trans-4-(5-(4-chloro-3-fluorobenzyl)-1,3,4-oxadiazol-2-yl)cyclohexyl)-2-(4-chloro-3-fluorophenoxy)acetamide]	94		
100 to 1000	O=C(Nc1ccc2cc(Cl)ccc2n1)[C@H]1CC[C@H](c2nnc([C@H]3CC[C@H](C(F)(F)F)CC3)o2)CC1 [Compound 30, trans-N-(6-chloroquinolin-2-yl)-4-(5-(trans-4-(trifluoromethyl)cyclohexyl)-1,3,4-oxadiazol-2-yl)cyclohexanecarboxamide]	16.7		
10 to 100	O=C(COc1ccc(Cl)c(F)c1)NC[C@H]1CC[C@H](c2nnc(-c3ccc(Cl)cc3)o2)CC1 [Compound 3, trans-2-(4-chloro-3-fluorophenoxy)-N-((4-(5-(4-chlorophenyl)-1,3,4-oxadiazol-2-yl)cyclohexyl)methyl)acetamide]	138		
100 to 1000	O=C(NC[C@H]1CC[C@H](c2nnc(-c3ccc(Cl)cc3)o2)CC1)c1cc2cc(Cl)ccc2o1 [Compound 2, trans-5-chloro-N-((4-(5-(4-chlorophenyl)-1,3,4-oxadiazol-2-yl)cyclohexyl)methyl)benzofuran-2-carboxamide]	136		
< 10	O=C(N[C@H]1CC[C@H](c2nnc(-c3ccc(Cl)cc3)o2)CC1)c1ccc2cc(Cl)ccc2n1 [Compound 5, trans-6-chloro-N-(4-(5-(4-chlorophenyl)-1,3,4-oxadiazol-2-yl)cyclohexyl)quinoline-2-carboxamide]	139		
< 10	O=C(COc1ccc(Cl)c(F)c1)NN1CCC(c2nnc([C@H]3C[C@@H](OC(F)(F)F)C3)o2)CC1 [Compound 242, 2-(4-chloro-3-fluorophenoxy)-N-(4-(5-(cis-3-(trifluoromethoxy)cyclobutyl)-1,3,4-oxadiazol-2-yl)piperidin-1-yl)acetamide]	23		
< 10	O=C(N[C@H]1CC[C@H](c2nnc(COc3ccc(Cl)cc3)o2)CC1)c1cc2cc(Cl)ccc2o1 [Compound 10, trans-5-chloro-N-(4-(5-((4-chlorophenoxy)methyl)-1,3,4-oxadiazol-2-yl)cyclohexyl)benzofuran-2-carboxamide]	165		
10 to 100	O=C(N[C@H]1CC[C@H](c2nnc(-c3ccc(Cl)cc3)o2)CC1)c1cnc(C(F)F)cn1 [Compound 15, trans-N-(4-(5-(4-chlorophenyl)-1,3,4-oxadiazol-2-yl)cyclohexyl)-5-(difluoromethyl)pyrazine-2-carboxamide]	103		
< 10	O=C(COc1ccc(Cl)c(F)c1)NN1CCC(c2nnc(COc3ccc(Cl)cc3)o2)CC1 [Compound 240, 2-(4-chloro-3-fluorophenoxy)-N-(4-(5-((4-chlorophenoxy)methyl)-1,3,4-oxadiazol-2-yl)piperidin-1-yl)acetamide]	42.3		
	O=C(COc1ccc(Cl)cc1)N[C@H]1CC[C@H](c2nnc(-c3ccc(Cl)cc3)o2)CC1 [Compound 8, trans-2-(4-chlorophenoxy)-N-(4-(5-(4-chlorophenyl)-1,3,4-oxadiazol-2-yl)cyclohexyl)acetamide]		96.9	< 10
	O=C(Nc1ccc2cc(Cl)ccc2n1)[C@H]1CC[C@H](c2nc(-c3ccc(Cl)cc3)co2)CC1 [Compound 32, trans-4-(4-(4-chlorophenyl)oxazol-2-yl)-N-(6-chloroquinolin-2-yl)cyclohexanecarboxamide]		136	> 1000
> 1000	O=C(Nc1ccc2cc(Cl)ccc2n1)[C@H]1CC[C@H](c2nnc([C@H]3CC[C@@H](C(F)(F)F)CC3)o2)CC1 [Compound 31, trans-N-(6-chloroquinolin-2-yl)-4-(5-(cis-4-(trifluoromethyl)cyclohexyl)-1,3,4-oxadiazol-2-yl)cyclohexanecarboxamide]	4.9		
